Measurements as given in US20130123481A1, “MODIFIED NUCLEOSIDES, NUCLEOTIDES, AND NUCLEIC ACIDS, AND USES THEREOF” (MODERNA THERAPEUTICS, priority 2011, published 2013).
Like-named read-outs stand apart in the source and are kept apart here. One block for each molecule: values may come before it.

Assays:
HeLa cells = test: In vitro Screening in HeLa Cells - luciferase (RLU); assay type: cell-based, human; parameters: key to Protein (Luc; HeLa): the protein production of HeLa is judged by “+,” “+/−” and “−”; the protein production of HeLa is judged by “+,” “+/−” and “−”; the protein production of HeLa is judged by “+,” “+/−” and “−”
Protocol: The 2′Fluoro-modified mRNA were then transfected into HeLa cells to assess protein production in a cell context and the same mRNA were also assessed in a cell-free rabbit reticulocyte system. A control of unmodified luciferase (natural luciferase) was used for both transcription experiments, a control of untreated and mock transfected (Lipofectamine 2000 alone) were also analyzed for the HeLa transfection and a control of no RNA was analyzed for the rabbit reticulysates.
For the HeLa transfection experiments, the day before transfection, 20,000 HeLa cells (ATCC no. CCL-2; Manassas, Va.) were harvested by treatment with Trypsin-EDTA solution (LifeTechnologies, Grand Island, N.Y.) and seeded in a total volume of 100 ul EMEM medium (supplemented with 10% FCS and 1× Glutamax) per well in a 96-well cell culture plate (Corning, Manassas, Va.). The cells were grown at […] in 5% CO2 atmosphere overnight. […] Lipofectamine 2000 (LifeTechnologies, Grand Island, N.Y.) was used as transfection reagent and 0.2 ul were diluted in 10 ul final volume of OPTI-MEM. After […] of incubation at room temperature, both solutions were combined and incubated an additional 15 minute at room temperature. Then the 20 ul combined solution was added to the 100 ul cell culture medium containing the HeLa cells and incubated at room temperature. After 18 to 22 hours of incubation cells expressing luciferase were lysed with 100 ul of Passive Lysis Buffer (Promega, Madison, Wis.) according to manufacturer instructions. Aliquots of the lysates were transferred to white opaque polystyrene 96-well plates (Corning, Manassas, Va.) and combined with 100 ul complete luciferase assay solution (Promega, Madison, Wis.). The lysate volumes were adjusted or diluted until no more than 2 mio relative light units (RLU) per well were detected for the strongest signal producing samples and the RLUs for each chemistry tested are shown in Table 42. The plate reader was a BioTek Synergy H1 (BioTek, Winooski, Vt.). The background signal of the plates without reagent was about 200 relative light units per well.
To evaluate using of 2′fluoro-modified mRNA in combination with other modification a series of mRNA were transcribed using either wild-type T7 polymerase (non-fluoro-containing compounds) or using mutant T7 polymerases (fluyoro-containing compounds) as described in Example 86. All modified mRNA were tested by in vitro transfection in HeLa cells.
After 18 to 22 hours of incubation cells expressing luciferase were lysed with 100 ul of Passive Lysis Buffer (Promega, Madison, Wis.) according to manufacturer instructions. Aliquots of the lysates were transferred to white opaque polystyrene 96-well plates (Corning, Manassas, Va.) and combined with 100 ul complete luciferase assay solution (Promega, Madison, Wis.). The lysate volumes were adjusted or diluted until no more than 2 mio relative light units (RLU) per well were detected for the strongest signal producing samples and the RLUs for each chemistry tested are shown in Table 44. The plate reader was a BioTek Synergy H1 (BioTek, Winooski, Vt.). The background signal of the plates without reagent was about 200 relative light units per well.

[1] = system: Rabbit Reticulocyte Lysate; test: In Vitro Screening in Rabbit Reticulocyte Lysates - luciferase (RLU); assay type: biochemical; details: 250 ng 2′-fluoro-containing luciferase mRNA, 60 minutes, 30° C., background about 160 RLU
Protocol: The diluted luciferase was added to 40 ul of freshly prepared Rabbit Reticulocyte Lysate and the in vitro translation reaction was done in a standard 1.5 mL polypropylene reaction tube (Thermo Fisher Scientific, Waltham, Mass.) at 30° C. in a dry heating block. The translation assay was done with the Rabbit Reticulocyte Lysate (nuclease-treated) kit (Promega, Madison, Wis.) according to the manufacturer's instructions. The reaction buffer was supplemented with a one-to-one blend of provided amino acid stock solutions devoid of either Leucine or Methionine resulting in a reaction mix containing sufficient amounts of both amino acids to allow effective in vitro translation.
After 60 minutes of incubation, the reaction was stopped by placing the reaction tubes on ice. […] The volumes of the in vitro translation reactions were adjusted or diluted until no more than 2 mio relative light units (RLUs) per well were detected for the strongest signal producing samples and the RLUs for each chemistry tested are shown in Table 29. The plate reader was a BioTek Synergy H1 (BioTek, Winooski, Vt.). […]
The 2′Fluoro-modified mRNA were then transfected into HeLa cells to assess protein production in a cell context and the same mRNA were also assessed in a cell-free rabbit reticulocyte system. […]

[2] = system: female BALB/C mice, interferon-alpha (IFN-alpha); details: mouse, in vivo
[3] = system: human PBMC, tumor necrosis factor alpha (TNF-alpha)
[4] = system: PBMC, tumor necrosis factor-alpha (TNF-alpha); test: 2′Fluoro Chemistries in PBMC - TNF-alpha production; assay type: cell-based, human; details: G-CSF modified mRNA, ELISA, average of 2 donors
female BALB/C mice = test: In Vivo Detection of Innate Immune Response Study - human G-CSF protein in serum; details: human G-CSF in mouse serum; I.M.; 8 hours after dosing
Protocol: Blood is collected at 8 hours after dosing.

[5] = system: PBMC, interferon-alpha (IFN-alpha); test: 2′Fluoro Chemistries in PBMC - IFN-alpha production; assay type: cell-based, human; details: G-CSF modified mRNA, ELISA, average of 3 donors
wild-type T7 polymerase = wild-type T7 polymerase (Escherichia phage T7, UniProt P00573); test: In Vitro Transcription with Wild-Type T7 Polymerase (transcription and capping yield); details: Table 48 non-naturally occurring, Pass/Fail
Protocol: (§1) The luciferase and G-CSF modified mRNA were also subjected to an enzymatic capping reaction and each modified mRNA capping reaction was evaluated for yield by spectrophometic measurement (OD260) and correct size assessed using bioanalyzer.

[6] = molecular target: T1, mutant T7 polymerase (Durascribe T7 Transcription kit) (Escherichia phage T7, UniProt P00573, Y639F); details: Table 48 non-naturally occurring, in vitro transcription using mutant T7 polymerase
T1 construct: purchased Epicentre, Madison, Wis; DS010925
Protocol: as §1

[7] = system: female BALB/C mice, interferon-alpha (IFN-alpha); test: In Vivo Detection of Innate Immune Response Study - mouse IFN-alpha in serum

T1 sequence (P00573 whole entry Y639F): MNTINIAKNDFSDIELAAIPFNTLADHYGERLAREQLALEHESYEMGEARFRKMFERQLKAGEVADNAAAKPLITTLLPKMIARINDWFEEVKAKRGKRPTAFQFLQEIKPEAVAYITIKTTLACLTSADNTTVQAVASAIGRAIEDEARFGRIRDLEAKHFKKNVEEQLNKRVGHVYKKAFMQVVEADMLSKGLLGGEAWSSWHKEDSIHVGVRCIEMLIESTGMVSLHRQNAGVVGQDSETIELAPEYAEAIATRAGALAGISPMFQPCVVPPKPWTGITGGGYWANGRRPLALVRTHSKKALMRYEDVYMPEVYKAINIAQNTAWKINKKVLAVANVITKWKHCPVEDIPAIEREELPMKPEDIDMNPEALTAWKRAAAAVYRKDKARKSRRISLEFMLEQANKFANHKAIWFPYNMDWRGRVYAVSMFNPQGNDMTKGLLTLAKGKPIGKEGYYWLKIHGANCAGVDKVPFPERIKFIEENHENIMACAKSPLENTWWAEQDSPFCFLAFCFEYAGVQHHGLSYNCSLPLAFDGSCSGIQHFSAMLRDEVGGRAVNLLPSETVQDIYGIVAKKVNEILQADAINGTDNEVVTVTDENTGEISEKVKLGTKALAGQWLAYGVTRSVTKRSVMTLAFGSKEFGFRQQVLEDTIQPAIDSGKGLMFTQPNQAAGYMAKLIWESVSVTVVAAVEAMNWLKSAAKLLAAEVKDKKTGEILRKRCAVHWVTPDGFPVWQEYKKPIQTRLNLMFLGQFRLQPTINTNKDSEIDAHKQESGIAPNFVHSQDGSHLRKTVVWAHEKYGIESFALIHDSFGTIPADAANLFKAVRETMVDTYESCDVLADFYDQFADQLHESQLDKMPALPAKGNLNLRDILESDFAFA
Chain of wild-type T7 polymerase (P00573 whole entry): as the sequence (P00573 whole entry Y639F) above, with F639Y counted along it

Molecule: Natural Luciferase: natural luciferase mRNA (SEQ ID NO: 3), Cap1 [reference compound]
RLU (HeLa cells; 83 ng 2′fluoro-containing luciferase mRNA, Lipofectamine 2000, HeLa cells): 133,853.5 RLU
RLU (HeLa cells; 83 ng luciferase mRNA with combination of modifications, HeLa cells, 18 to 22 hours, background about 200 RLU): 30,801 RLU
RLU [1]: 2,159,968 RLU

IFN-alpha expression [2]: 40.97 pg/mL
Molecule: CCOCc1nc2c(N)nc3ccccc3c2n1CC(C)(C)O [Compound R-848]
TNF-alpha: 3 Donor Average [3]: 1477 pg/mL
TNF-alpha: 2 Donor Average (pg/ml) [4]: 8,235 pg/ml
G-CSF protein (female BALB/C mice): 3.4 pg/mL
IFN-alpha: 3 Donor Average [5]: 45 pg/mL

Molecule: 2′-F-adenosine
IVT (G-CSF), first result (wild-type T7 polymerase; G-CSF mRNA in vitro transcription): Fail/Fail**
IVT (Luc), first result (wild-type T7 polymerase; luciferase mRNA in vitro transcription): Fail
Protein (Luc; HeLa) (HeLa cells; Table 48 non-naturally occurring, ** mutant T7 polymerase): −**
IVT (G-CSF), second result ** [6]: Fail/Fail**
IVT (Luc), second result ** [6]: Pass

B1: GCSF mRNA unmod: G-CSF mRNA (SEQ ID NO: 1) unmodified, 5′ cap of Cap1 (nucleic acid, listed as Homo Sapiens)
chain: GGGAAAUAAGAGAGAAAAGAAGAGUAAGAAGAAAUAUAAGAGCCACCAUGGCCGGUCCCGCGACCCAAAGCCCCAUGAAACUUAUGGCCCUGCAGUUGCUGCUUUGGCACUCGGCCCUCUGGACAGUCCAAGAAGCGACUCCUCUCGGACCUGCCUCAUCGUUGCCGCAGUCAUUCCUUUUGAAGUGUCUGGAGCAGGUGCGAAAGAUUCAGGGCGAUGGAGCCGCACUCCAAGAGAAGCUCUGCGCGACAUACAAACUUUGCCAUCCCGAGGAGCUCGUACUGCUCGGGCACAGCUUGGGGAUUCCCUGGGCUCCUCUCUCGUCCUGUCCGUCGCAGGCUUUGCAGUUGGCAGGGUGCCUUUCCCAGCUCCACUCCGGUUUGUUCUUGUAUCAGGGACUGCUGCAAGCCCUUGAGGGAAUCUCGCCAGAAUUGGGCCCGACGCUGGACACGUUGCAGCUCGACGUGGCGGAUUUCGCAACAACCAUCUGGCAGCAGAUGGAGGAACUGGGGAUGGCACCCGCGCUGCAGCCCACGCAGGGGGCAAUGCCGGCCUUUGCGUCCGCGUUUCAGCGCAGGGCGGGUGGAGUCCUCGUAGCGAGCCACCUUCAAUCAUUUUUGGAAGUCUCGUACCGGGUGCUGAGACAUCUUGCGCAGCCGUGAAGCGCUGCCUUCUGCGGGGCUUGCCUUCUGGCCAUGCCCUUCUUCUCUCCCUUGCACCUGUACCUCUUGGUCUUUGAAUAAAGCCUGAGUAGGAAG
modifications: Cap1
PC Ratio ([7]; G-CSF protein / IFN-alpha in mouse serum): 9
IFN-alpha expression ([7]; mouse IFN-alpha in serum, I.M., 8 hours after dosing): 67.01 pg/mL
G-CSF protein (female BALB/C mice): 605.6 pg/mL
